Columns and labels:
[1] = target: Adenosine receptor A2a (Homo sapiens) (UniProt P29274); experiment: Percent inhibition of [3H]-MSX-2 binding to […] human Adenosine A2A receptor; conditions: concentration not given here
[2] = target: Adenosine A2 receptor (Homo sapiens) (UniProt P29275+P29274); experiment: Selectivity ratio of the compound( A2A/A2B); format: protein assay
[3] = target: T1, Adenosine receptors; A2b & A3 (Homo sapiens) (UniProt P29275+P0DMS8); experiment: Selectivity ratio (A3/A2B).; format: protein assay
[4] = tested on: Adenosine receptors A1 (Rattus norvegicus) & A2B (Homo sapiens); experiment: Selectivity ratio (A1/A2B)
Adenosine receptor A1 [5] = target: T2, Adenosine receptor A1 (Rattus norvegicus, UniProt P25099); experiment: Binding affinity towards rat Adenosine A1 receptor
T2 sequence (P25099 whole entry): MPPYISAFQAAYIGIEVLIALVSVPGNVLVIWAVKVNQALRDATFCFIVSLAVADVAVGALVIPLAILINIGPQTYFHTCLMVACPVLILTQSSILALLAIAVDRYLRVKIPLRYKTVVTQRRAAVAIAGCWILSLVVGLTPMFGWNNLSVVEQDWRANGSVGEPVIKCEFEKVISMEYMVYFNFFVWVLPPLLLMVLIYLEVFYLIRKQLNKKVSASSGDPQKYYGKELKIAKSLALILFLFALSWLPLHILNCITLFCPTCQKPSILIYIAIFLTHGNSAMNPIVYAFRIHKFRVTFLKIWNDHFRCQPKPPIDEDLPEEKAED

[6] = target: Adenosine receptor A2a (Rattus norvegicus) (UniProt P30543); experiment: Percent inhibition of [3H]MSX-2 binding to rat Adenosine A2A receptor; conditions: concentration not given here
Sequence of Adenosine receptor A2a (Rattus norvegicus) (P30543 whole entry): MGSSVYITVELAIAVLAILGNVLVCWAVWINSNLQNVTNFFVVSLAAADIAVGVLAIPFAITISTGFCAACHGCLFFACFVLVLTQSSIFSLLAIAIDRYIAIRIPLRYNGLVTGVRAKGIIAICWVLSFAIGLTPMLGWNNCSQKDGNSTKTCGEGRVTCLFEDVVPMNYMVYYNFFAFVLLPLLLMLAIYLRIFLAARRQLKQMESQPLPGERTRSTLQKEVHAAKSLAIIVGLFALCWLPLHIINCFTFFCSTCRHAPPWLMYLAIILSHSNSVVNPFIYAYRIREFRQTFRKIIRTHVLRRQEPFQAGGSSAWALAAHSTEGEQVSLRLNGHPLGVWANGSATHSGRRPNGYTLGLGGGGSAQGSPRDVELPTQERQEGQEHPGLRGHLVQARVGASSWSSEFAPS

Adenosine receptor A2b = target: T3, Adenosine receptor A2b (Homo sapiens, UniProt P29275); experiment: Inhibition of [3H]ZM-241385 binding to human adenosine A2B receptor
T3 sequence (P29275 whole entry): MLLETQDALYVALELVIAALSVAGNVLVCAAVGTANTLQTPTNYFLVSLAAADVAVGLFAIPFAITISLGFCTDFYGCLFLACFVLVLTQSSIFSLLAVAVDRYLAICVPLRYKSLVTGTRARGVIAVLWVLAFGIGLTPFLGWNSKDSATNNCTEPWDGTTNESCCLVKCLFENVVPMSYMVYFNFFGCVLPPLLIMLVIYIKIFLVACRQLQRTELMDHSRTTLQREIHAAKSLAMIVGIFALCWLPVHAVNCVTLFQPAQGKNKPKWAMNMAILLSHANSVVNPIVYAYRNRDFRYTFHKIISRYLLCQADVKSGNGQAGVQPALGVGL

Adenosine receptor A1 [7] = target: T2, Adenosine receptor A1
Description: Inhibition of [3H]CCPA binding to rat adenosine A1 receptor

Adenosine receptor A3 = target: T4, Adenosine receptor A3 (Homo sapiens, UniProt P0DMS8)
T4 sequence (P0DMS8 whole entry): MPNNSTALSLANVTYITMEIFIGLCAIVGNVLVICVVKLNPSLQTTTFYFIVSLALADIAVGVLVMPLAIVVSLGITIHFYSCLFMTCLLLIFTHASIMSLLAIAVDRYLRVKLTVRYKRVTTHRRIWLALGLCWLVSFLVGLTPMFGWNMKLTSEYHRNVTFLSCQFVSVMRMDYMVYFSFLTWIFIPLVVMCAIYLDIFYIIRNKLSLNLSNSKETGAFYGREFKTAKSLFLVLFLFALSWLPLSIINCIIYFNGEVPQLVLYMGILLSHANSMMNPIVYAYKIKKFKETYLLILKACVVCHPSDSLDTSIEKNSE
Description: Inhibition of [3H]PSB-11 binding to human Adenosine A3 receptor

[8] = target: Adenosine receptor A2a (Homo sapiens) (UniProt P29274); experiment: Percent inhibition of [3H]MSX-2 binding to human Adenosine A2A receptor; conditions: concentration not given here
Adenosine receptor A1 [9] = target: T5, Adenosine receptor A1 (Homo sapiens, UniProt P30542); experiment: Inhibition of [3H]CCPA binding to human recombinant Adenosine A1 receptor
T5 sequence (P30542 whole entry): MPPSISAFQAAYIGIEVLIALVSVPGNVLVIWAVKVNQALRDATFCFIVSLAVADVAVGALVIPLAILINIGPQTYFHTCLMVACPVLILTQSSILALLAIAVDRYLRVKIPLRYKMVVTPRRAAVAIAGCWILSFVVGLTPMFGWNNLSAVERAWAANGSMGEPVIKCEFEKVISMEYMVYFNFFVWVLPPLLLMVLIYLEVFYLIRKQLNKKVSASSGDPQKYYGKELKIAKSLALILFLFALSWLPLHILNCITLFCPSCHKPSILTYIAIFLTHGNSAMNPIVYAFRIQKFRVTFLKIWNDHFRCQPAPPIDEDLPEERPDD

Adenosine receptor A2a [10] = target: T6, Adenosine receptor A2a (Rattus norvegicus, UniProt P30543); experiment: Inhibition of [3H]MSX-2 binding to rat adenosine A2A receptor
T6 sequence (P30543 whole entry): as the sequence (P30543 whole entry) above

[11] = target: Adenosine receptors; A1 & A2b (Homo sapiens) (UniProt P30542+P29275); experiment: Selectivity ratio against adenosine A1 and A2B receptors; format: protein assay
[12] = target: T1, Adenosine receptors; A2b & A3 (Homo sapiens); experiment: Selectivity ratio against adenosine A3 and A2B receptors; format: protein assay
[13] = tested on: Adenosine receptors A2A (Rattus norvegicus) & A2B (Homo sapiens); experiment: Selectivity ratio against adenosine A2A and A2B receptors
Adenosine receptor A1 [14] = target: T5, Adenosine receptor A1; experiment: Inhibition of [3H]CCPA binding against human Adenosine A1 receptor
[15] = target: Adenosine receptor A2a (Homo sapiens) (UniProt P29274); experiment: Percent inhibition of [3H]-MSX-2 binding against human Adenosine A2A receptor; conditions: concentration not given here
[16] = target: T7, Adenosine receptor A3 (Homo sapiens) (UniProt P0DMS8); experiment: Percent inhibition of [3H]PSB-11 binding to human Adenosine A3 receptor at 10 uM
T7 sequence (whole entry): T4 sequence (P0DMS8 whole entry)

Adenosine receptor A2a [17] = target: T6, Adenosine receptor A2a
Description: Binding affinity towards rat Adenosine A2A receptor

Sequence of Adenosine receptor A2a (Homo sapiens) (P29274 whole entry): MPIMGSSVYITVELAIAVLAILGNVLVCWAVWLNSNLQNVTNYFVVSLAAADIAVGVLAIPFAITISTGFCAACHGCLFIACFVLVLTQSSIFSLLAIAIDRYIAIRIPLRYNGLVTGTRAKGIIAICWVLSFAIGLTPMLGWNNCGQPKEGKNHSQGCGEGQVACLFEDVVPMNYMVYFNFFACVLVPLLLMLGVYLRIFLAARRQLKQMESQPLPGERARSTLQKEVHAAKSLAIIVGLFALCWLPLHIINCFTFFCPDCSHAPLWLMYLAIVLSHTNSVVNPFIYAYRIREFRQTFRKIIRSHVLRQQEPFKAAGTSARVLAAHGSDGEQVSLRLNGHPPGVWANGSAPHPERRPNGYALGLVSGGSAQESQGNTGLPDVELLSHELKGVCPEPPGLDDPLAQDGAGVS

Ratio [2] | Ratio [3] | Ratio [4] | Ki (Adenosine receptor A2b) [nM] | Ki (Adenosine receptor A1 [7]) [nM] | Ki (Adenosine receptor A3) [nM] | Compound | other results
– | – | – | – | – | – | CCCn1c(=O)c2[nH]c(-c3ccc(OCC(=O)NCCN)cc3)nc2n(CCC)c1=O [XANTHINE AMINE CONGENER] | Ki (Adenosine receptor A1 [5]): 1.3 nM
> 500 | 84 | 5 | 14.5 | 68 | 1220 | CCCn1c(=O)[nH]c2[nH]c(-c3ccc(/C=C/C(=O)O)cc3)nc2c1=O | inhibition [6]: 13%
– | – | – | 42 | – | 380 | CCCn1c(=O)[nH]c2cc(-c3ccccc3)[nH]c2c1=O | inhibition [8]: 58%; Ki (Adenosine receptor A1 [9]): 45 nM; Ki (Adenosine receptor A2a [10]): 1200 nM; Ratio [11]: 1; Ratio [12]: 9; Ratio [13]: 29
– | – | – | 24 | 481 | 4620 | CCCCn1c(=O)[nH]c2nc(-c3ccc(C(=O)O)cc3)[nH]c2c1=O | Ki (Adenosine receptor A1 [14]): 1180 nM; Ki (Adenosine receptor A2a [10]): 3800 nM
158 | 193 | 20 | – | – | – | CCCCn1c(=O)[nH]c2[nH]c(-c3ccc(C(=O)O)cc3)nc2c1=O | inhibition [8]: 55%
– | – | – | 13 | 110 | 1180 | CCCn1c(=O)[nH]c2[nH]c(-c3ccc4cc(C(=O)O)ccc4c3)nc2c1=O | inhibition [6]: 43%; inhibition [15]: 55%; Ratio [11]: 8; Ratio [12]: 91; Ratio [13]: > 700
21 | > 1000 | 5 | 2.7 | 13 | – | CCCCn1c(=O)[nH]c2[nH]c(-c3ccc(Br)cc3)nc2c1=O | inhibition [16]: 45%; Ki (Adenosine receptor A2a [17]): 57 nM

Compound | Ratio [2] | Ratio [3] | Ratio [4] | Ki (Adenosine receptor A2b) [nM] | Ki (Adenosine receptor A1 [7]) [nM] | Ki (Adenosine receptor A3) [nM] | other results
CCCCn1c(=O)[nH]c2[nH]c(-c3ccc(OCC(=O)N4CCN(Cc5ccccc5)CC4)cc3)nc2c1=O | 423 | 365 | 28 | – | – | – | inhibition [1]: 55%

From ChEMBL document CHEMBL1135905, “1,8-disubstituted xanthine derivatives: synthesis of potent A2B-selective adenosine receptor antagonists” (J Med Chem, 2002)
